Source: US4368325A, “Processes for preparing 3-cephem compounds” (Fujisawa Pharmaceutical Co., Ltd., priority 1980, dated 1983)
In brackets after ≈: the same amount, converted by molar mass.

Legend:
Experiment in all cases: In vitro antibacterial activity, two-fold agar-plate dilution method
Type in all cases: cell-based
[1] = test system: Proteus vulgaris IAM-1025; conditions: IAM1025, HI-agar, 37° C., 20 hours, 100-fold dilution of overnight culture, read-out: minimal inhibitory concentration (MIC)
Description: (§1) In vitro antibacterial activity was determined by the two-fold agar-plate dilution method as described below. One loopful of the 100-fold dilution of an overnight culture of each test strain in Trypticasesoy broth was streaked on heart infusion agar (HI-agar) containing graded concentrations of the test compound and incubated at 37° C. for 20 hours. The minimal inhibitory concentration (MIC) was expressed in μg/ml.

Serratia marcescens 35 = conditions: HI-agar, 37° C., 20 hours, 100-fold dilution of overnight culture, read-out: minimal inhibitory concentration (MIC)
Description: as §1

[2] = test system: Pseudomonus aeruginosa NCTC-10490; conditions: HI-agar, 37° C., 20 hours, 100-fold dilution of overnight culture, read-out: minimal inhibitory concentration (MIC)
Description: as §1

[3] = test system: Escherichia coli. NIHJ JC-2; conditions: NIHJJC2, HI-agar, 37° C., 20 hours, 100-fold dilution of overnight culture, read-out: minimal inhibitory concentration (MIC)
Description: as §1

Klebsiella pneumoniae 20 = conditions: HI-agar, 37° C., 20 hours, 100-fold dilution of overnight culture, read-out: minimal inhibitory concentration (MIC)
Description: as §1

Proteus mirabilis 18 = conditions: HI-agar, 37° C., 20 hours, 100-fold dilution of overnight culture, read-out: minimal inhibitory concentration (MIC)
Description: as §1

[4] = test system: Staphylococcus aureus 209P JC-1; conditions: HI-agar, 37° C., 20 hours, 100-fold dilution of overnight culture, read-out: minimal inhibitory concentration (MIC)
Description: as §1

Compound: CO/N=C(\C(=O)NC1C(=O)N2C(C(=O)O)=CCSC12)c1csc(N)n1 (stereo not drawn) [7-[2-(2-aminothiazol-4-yl)-2-methoxyiminoacetamido]-3-cephem-4-carboxylic acid (syn isomer)]
- MIC [1]: ≤ 0.025 µg/mL
- MIC (Serratia marcescens 35): 1.56 µg/mL (≈ 4.07 µM)
- MIC [2]: 0.39 µg/mL (≈ 1.02 µM)
- MIC [3]: ≤ 0.025 µg/mL
- MIC (Klebsiella pneumoniae 20): ≤ 0.025 µg/mL
- MIC (Proteus mirabilis 18): ≤ 0.025 µg/mL
- MIC [4]: 6.25 µg/mL (≈ 16.3 µM)
